Test system: NCI60 cell lines
Assay: NCI60 cell line panel
Format: cell-based, human
Experimental: The Developmental Therapeutics Program (DTP) of NCI has evaluated more than 100,000 pure compounds and more than 34,000 crude extracts against the panel of human tumor cell lines. The resultant data are analyzed using a program called COMPARE, that rank the entire database of tested compounds in the order of the similarity of the responses. […] Thus, the NCI60 databases is highly useful to the cancer research community. Further experiments were conducted that tested some of the active compounds in a panel of NCI60 cell line to relate our compounds with some known inhibitors to have an idea of possible mechanism of action.
In order to understand the selectivity of these compounds in different cancer types, some of them were tested against a panel of 60 cell lines (Table XXXIX).

CCN(CC)CCCC(C)Nc1cnc(C(=O)Nc2ccc(Cl)c3cccnc23)cn1 (centres unmarked) [J9, N-(5-chloroquinolin-8-yl)-5-((5-(diethylamino)pentan-2-yl)amino)pyrazine-2-carboxamide]
GIPRCNT: % Growth inhibition (Breast Cancer, BT-549): 80.08% | GIPRCNT: % Growth inhibition (Breast Cancer, HS 578T): 51.41% | GIPRCNT: % Growth inhibition (Breast Cancer, MCF7): −2.145% | GIPRCNT: % Growth inhibition (Breast Cancer, MDA-MB-231/ATCC): −29.6765% | GIPRCNT: % Growth inhibition (Breast Cancer, MDA-MB-468): −28.0145% | GIPRCNT: % Growth inhibition (Breast Cancer, T-47D): −49.3289% | GIPRCNT: % Growth inhibition (CNS Cancer, SF-268): 35.85% | GIPRCNT: % Growth inhibition (CNS Cancer, SF-295): 63.03% | GIPRCNT: % Growth inhibition (CNS Cancer, SF-539): −73.563% | GIPRCNT: % Growth inhibition (CNS Cancer, SNB-19): 49.65% | GIPRCNT: % Growth inhibition (CNS Cancer, SNB-75): 41.7% | GIPRCNT: % Growth inhibition (CNS Cancer, U251): −35.3044% | GIPRCNT: % Growth inhibition (Colon Cancer, COLO 205): −66.6925% | GIPRCNT: % Growth inhibition (Colon Cancer, HCC-2998): 32.59% | GIPRCNT: % Growth inhibition (Colon Cancer, HCT-15): 3.732% | GIPRCNT: % Growth inhibition (Colon Cancer, HCT-116): −52.4351% | GIPRCNT: % Growth inhibition (Colon Cancer, HT29): −49.3651% | GIPRCNT: % Growth inhibition (Colon Cancer, KM12): 30.3% | GIPRCNT: % Growth inhibition (Colon Cancer, SW-620): 0.6189% | GIPRCNT: % Growth inhibition (Leukemia, CCRF-CEM): 5.288% | GIPRCNT: % Growth inhibition (Leukemia, HL-60(TB)): −63.3005% | GIPRCNT: % Growth inhibition (Leukemia, K-562): −45.7589% | GIPRCNT: % Growth inhibition (Leukemia, MOLT-4): 2.901% | GIPRCNT: % Growth inhibition (Leukemia, RPMI-8226): 2.196% | GIPRCNT: % Growth inhibition (Leukemia, SR): 1.416% | GIPRCNT: % Growth inhibition (Melanoma, LOX IMVI): −83.8894% | GIPRCNT: % Growth inhibition (Melanoma, M14): −73.1499% | GIPRCNT: % Growth inhibition (Melanoma, MALME-3M): −71.7698% | GIPRCNT: % Growth inhibition (Melanoma, MDA-MB-435): −57.8225% | GIPRCNT: % Growth inhibition (Melanoma, SK-MEL-2): 57.84% | GIPRCNT: % Growth inhibition (Melanoma, SK-MEL-5): −3.699% | GIPRCNT: % Growth inhibition (Melanoma, UACC-62): −52.4398% | GIPRCNT: % Growth inhibition (Melanoma, UACC-257): −32.9601% | GIPRCNT: % Growth inhibition (Non-Small Cell Lung Cancer, A549/ATCC): 23.43% | GIPRCNT: % Growth inhibition (Non-Small Cell Lung Cancer, EKVX): 66.07% | GIPRCNT: % Growth inhibition (Non-Small Cell Lung Cancer, HOP-62): 43.04% | GIPRCNT: % Growth inhibition (Non-Small Cell Lung Cancer, HOP-92): 38.78% | GIPRCNT: % Growth inhibition (Non-Small Cell Lung Cancer, NCI-H23): 80.43% | GIPRCNT: % Growth inhibition (Non-Small Cell Lung Cancer, NCI-H226): 39.13% | GIPRCNT: % Growth inhibition (Non-Small Cell Lung Cancer, NCI-H322M): 35.3% | GIPRCNT: % Growth inhibition (Non-Small Cell Lung Cancer, NCI-H460): 3.469% | GIPRCNT: % Growth inhibition (Non-Small Cell Lung Cancer, NCI-H522): 4.415% | GIPRCNT: % Growth inhibition (Ovarian Cancer, IGROV1): 44.22% | GIPRCNT: % Growth inhibition (Ovarian Cancer, NCI/ADR-RES): 52.19% | GIPRCNT: % Growth inhibition (Ovarian Cancer, OVCAR-3): −23.663% | GIPRCNT: % Growth inhibition (Ovarian Cancer, OVCAR-4): 51.32% | GIPRCNT: % Growth inhibition (Ovarian Cancer, OVCAR-5): 53.28% | GIPRCNT: % Growth inhibition (Ovarian Cancer, OVCAR-8): 27.34% | GIPRCNT: % Growth inhibition (Ovarian Cancer, SK-OV-3): 79.51% | GIPRCNT: % Growth inhibition (Prostate Cancer, DU-145): 53.1% | GIPRCNT: % Growth inhibition (Prostate Cancer, PC-3): 39.38% | GIPRCNT: % Growth inhibition (Renal Cancer, 786-0): −44.1831% | GIPRCNT: % Growth inhibition (Renal Cancer, A498): 53.99% | GIPRCNT: % Growth inhibition (Renal Cancer, ACHN): −54.7701% | GIPRCNT: % Growth inhibition (Renal Cancer, CAKI-1): 23.14% | GIPRCNT: % Growth inhibition (Renal Cancer, RXF 393): 18.75% | GIPRCNT: % Growth inhibition (Renal Cancer, SN12C): 31.6819% | GIPRCNT: % Growth inhibition (Renal Cancer, TK-10): 57.61% | GIPRCNT: % Growth inhibition (Renal Cancer, UO-31): 23.83%
